Measurements published in patent US8119630B2 (Arrow Therapeutics Limited, priority 2002, dated 2012).

system: RSV; test: XTT assay, RSV-infected Vero cells; type: cell-based, Respiratory Syncytial Virus (RSV); conditions: Table 1; Vero cells infected with RSV, m.o.i.≈0.2, 6 days at 33° C.; read-out: XTT IC50
Description: Examples 1 to 74 and 83 to 124 were tested using the following protocol.
The inner 60 wells of 96 well tissue culture plates were seeded with Vero cells at 3×10^4 cells/well (1×10^4 cells/well for toxicity studies) in 100 or 150 μl of medium and incubated at 37° C. overnight or until nearing confluency. For primary screen, 25 μl compounds were added directly to 100 μl medium in single wells to duplicate plates. A third plate was prepared for simultaneous toxicity investigation.
For follow-up investigation, 70 μl of compound in duplicate wells were added directly to culture medium at 3.2× final concentration and ½ log serially diluted down columns of plate. A duplicate plate was prepared for simultaneous toxicity investigation.
Cells were infected with 25 μl RSV to give m.o.i.≈0.2. Some 100 μl of sterile distilled water were added to the outer wells of the plate and incubated at 33° C. for 6 days. Some 0.25 μl/ml PMS were added to stock XTT solution, final conc. […]. Then 25 μl warmed XTT/PMS solution were added to each well and incubated for 5 hours at 37° C. Plates were shaken (DynaTech Vari-Shaker) vigorously for 10 mins and allowed to cool for 15 mins before sealing. Absorbance at 450 nm was measured and data analysed using Microsoft Excel software.
Maximum OD450nm reading (uninfected, untreated control cells) corresponded to 100% inhibition. Minimum OD450nm readings (infected control cells) corresponded to 0% inhibition. Log 10 concentration was plotted against OD450nm and IC50 (Table 1) values were calculated from either reading 50% value from graph or using regression analysis.

Structure (SMILES) | IC50
O=C(NC1N=C(c2ccccc2)c2ccccc2NC1=O)C1CCCCC1 (stereo not drawn) [Example 8] | 2 µM
COc1ccc(C(=O)NC2N=C(c3ccccc3)c3ccccc3NC2=O)cc1 (stereo not drawn) [Example 10, 4-Methoxy N-(2-oxo-5-phenyl-2,3-dihydro-1H-benzo[e][1,4]diazepin-3-yl)-benzamide] | 1.5 µM
COc1ccccc1C(=O)NC1N=C(c2ccccc2)c2ccccc2NC1=O (stereo not drawn) [Example 11, 2-Methoxy N-(2-oxo-5-phenyl-2,3-dihydro-1H-benzo[e][1,4]diazepin-3-yl)-benzamide] | 0.5 µM
O=C(NC1N=C(c2ccccc2)c2ccccc2NC1=O)c1cccs1 (stereo not drawn) [Example 14, Thiophene-2-carboxylic acid (2-oxo-5-phenyl-2,3-dihydro-1H-benzo[e][1,4]diazepin-3-yl)-3-amide] | 1.5 µM
O=C1Nc2ccccc2C(c2ccccc2)=NC1NC(=O)N1CCCCC1 (stereo not drawn) [Example 16] | 2 µM

same assay, conditions: human respiratory syncytial virus, Vero, 144 h, read-out: XTT IC50 (uM), Table 1; Vero cells infected with RSV, m.o.i.≈0.2, 6 days at 33° C.

Structure (SMILES) | IC50
CCN(CC)C(=O)NC1N=C(c2ccccc2)c2ccccc2NC1=O (stereo not drawn) [Example 2, 1,1-Diethyl-3-(2-oxo-5-phenyl-2,3-dihydro 1H-benzo[e][1,4]diazepin-3-yl)-urea] | 4 µM
CCC(=O)NC1N=C(c2ccccc2)c2ccccc2NC1=O (stereo not drawn) [Example 3, N-(2-Oxo-5-phenyl-2,3-dihydro-1H-benzo[e][1,4]diazepin-3-yl)-propionamide] | 2.5 µM
CCCC(=O)NC1N=C(c2ccccc2)c2ccccc2NC1=O (stereo not drawn) [Example 4, N-(2-Oxo-5-phenyl-2,3-dihydro-1H-benzo[e][1,4]diazepin-3-yl)-butyramide] | 5 µM
CC(C)C(=O)NC1N=C(c2ccccc2)c2ccccc2NC1=O (stereo not drawn) [Example 5, N-(2-Oxo-5-phenyl-2,3-dihydro-1H-benzo[e][1,4]diazepin-3-yl)-isobutyramide] | 2.5 µM
CC(C)(C)C(=O)NC1N=C(c2ccccc2)c2ccccc2NC1=O (stereo not drawn) [Example 6, 2,2-Dimethyl-N-(2-Oxo-5-phenyl-2,3-dihydro-1H-benzo[e][1,4]diazepin-3-yl)-propionamide] | 6 µM
O=C(NC1N=C(c2ccccc2)c2ccccc2NC1=O)C1CCCC1 (stereo not drawn) [Example 7, Cyclopentanecarboxylic acid (2-oxo-5-phenyl-2,3-dihydro-1H-benzo[e][1,4]diazepin-3-yl)-amide] | 2 µM
O=C(NC1N=C(c2ccccc2)c2ccccc2NC1=O)c1cccc(C(F)(F)F)c1 (stereo not drawn) [Example 12, N-(2-Oxo-5-phenyl-2,3-dihydro-1H-benzo[e][1,4]diazepin-3-yl)-3-trifluoromethyl-benzamide] | 2.5 µM
O=C(NC1N=C(c2ccccc2)c2ccccc2NC1=O)c1ccccc1 (stereo not drawn) [Example 13, N-(2-Oxo-5-phenyl-2,3-dihydro-1H-benzo[e][1,4]diazepin-3-yl)-benzamide] | 1.5 µM
O=C(NC1N=C(c2ccccc2)c2ccccc2NC1=O)c1ccco1 (stereo not drawn) [Example 15, Furan-2-carboxylic acid (2-oxo-5-phenyl-2,3-dihydro-1H-benzo[e][1,4]diazepin-3-yl)-amide] | 1 µM
O=C1Nc2ccccc2C(c2ccccc2)=NC1NC(=O)N1CCOCC1 (stereo not drawn) [Example 17, Morpholine-4-carboxylic acid (2-oxo-5-phenyl-2,3-dihydro-1H-benzo[e][1,4]diazepin-3-yl)-amide] | 5 µM
O=C(NC1N=C(c2ccccc2)c2ccccc2NC1=O)c1ccc([N+](=O)[O-])cc1 (stereo not drawn) [Example 18, 4-Nitro-N-(2-oxo-5-phenyl-2,3-dihydro-1H-benzo[e][1,4]diazepin-3-yl)-benzamide] | 2 µM
CN1CCN(C(=O)NC2N=C(c3ccccc3)c3ccccc3NC2=O)CC1 (stereo not drawn) [Example 20, 4-Methyl-piperazine-1-carboxylic acid-(2-oxo-5-phenyl-2,3-dihydro-1H-benzo[e][1,4]diazepin-3-yl)-amide] | 25 µM
O=C(NC1N=C(c2ccccc2)c2ccccc2NC1=O)c1ccc(Cl)c(Cl)c1 (stereo not drawn) [Example 21, 3,4-Dichloro-N-(2-oxo-5-phenyl-2,3-dihydro-1H-benzo[e][1,4]diazepin-3-yl)-benzamide] | 6 µM
